In this assay the target is T1, UCHL1 (Homo sapiens, UniProt P09936).
T1 construct: made in house; host or cells: HEK293T
T1 sequence (P09936 1-223): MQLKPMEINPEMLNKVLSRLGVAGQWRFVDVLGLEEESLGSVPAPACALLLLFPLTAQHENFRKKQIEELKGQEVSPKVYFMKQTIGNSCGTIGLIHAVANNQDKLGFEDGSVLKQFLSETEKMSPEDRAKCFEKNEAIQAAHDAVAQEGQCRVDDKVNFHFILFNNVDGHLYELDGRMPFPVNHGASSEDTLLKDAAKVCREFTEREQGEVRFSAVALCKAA
Nature of the assay: UCHL1 biochemical IC50 assay (fluorescence polarisation). Conditions: 30 min enzyme/compound pre-incubation at room temp, read after 2 hr incubation, read-out: Activity range (UCHL1 biochemical IC50 assay). The procedure, abridged: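 Fluorescence polarisation (ex 540/em 590 nm) of 50 nM TAMRA-labelled ubiquitin–peptide isopeptide substrate was read at time zero and after 2 h at room temperature. Compounds (100–0.03 μM final, in duplicate) were given 30 min preincubation with N-FLAG UCHL1 from HEK293T cells in pH 7.5 Tris buffer.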
On the technique in general: Polarisation of emitted light reports the rotation of a fluorescent probe.

In general, IC50 refers to the midpoint of a concentration-inhibition curve. For the compound `COc1ccccc1-n1cnc(NC(=O)[C@H]2CCN(C#N)C2)c1` [Example 160, (S)-1-cyano-N-(1-(2-methoxyphenyl)-1H-imidazol-4-yl)pyrrolidine-3-carboxamide], the IC50 was < 1000 nM.

For `N#CN1CC[C@H](C(=O)Nc2cn(C3CCOCC3)cn2)C1` [Example 161, (S)-1-cyano-N-(1-(tetrahydro-2H-pyran-4-yl)-1H-imidazol-4-yl)pyrrolidine-3-carboxamide], the IC50 is < 1000 nM.

Turning to `N#CN1CC[C@H](C(=O)Nc2cn(C3CCCCC3)cn2)C1` [Example 162, (S)-1-cyano-N-(1-cyclohexyl-1H-imidazol-4-yl)pyrrolidine-3-carboxamide], the IC50 is < 1000 nM. With `N#CN1CC[C@H](C(=O)Nc2cn(C3CCc4ccccc43)cn2)C1` (stereo partly shown) [Example 163], the IC50 was < 1000 nM. Turning to `N#CN1CC[C@H](C(=O)Nc2cn(C3Cc4ccccc4C3)cn2)C1` [Example 164, (S)-1-cyano-N-(1-(2,3-dihydro-1H-inden-2-yl)-1H-imidazol-4-yl)pyrrolidine-3-carboxamide], the IC50 is < 1000 nM.

Regarding `N#CN1CC[C@H](C(=O)Nc2cn(CC3CCOCC3)cn2)C1` [Example 165, (S)-1-cyano-N-(1-((tetrahydro-2H-pyran-4-yl)methyl)-1H-imidazol-4-yl)pyrrolidine-3-carboxamide], the IC50 fell in the range of 1000 to 10000 nM. Under `C[C@@H](c1ccccc1)n1cnc(NC(=O)[C@H]2CCN(C#N)C2)c1` [Example 166, (S)-1-cyano-N-(1-((S)-1-phenylethyl)-1H-imidazol-4-yl)pyrrolidine-3-carboxamide] stands < 1000 nM. Under `C[C@H](c1ccccc1)n1cnc(NC(=O)[C@H]2CCN(C#N)C2)c1` [Example 167, (S)-1-cyano-N-(1-((R)-1-phenylethyl)-1H-imidazol-4-yl)pyrrolidine-3-carboxamide] stands < 1000 nM; under `N#CN1CC[C@H](C(=O)Nc2cn(Cc3ccccn3)cn2)C1` [Example 168, (S)-1-cyano-N-(1-(pyridin-2-ylmethyl)-1H-imidazol-4-yl)pyrrolidine-3-carboxamide], < 1000 nM; under `N#CN1CC[C@H](C(=O)Nc2cn(Cc3cccnc3)cn2)C1` [Example 169, (S)-1-cyano-N-(1-(pyridin-3-ylmethyl)-1H-imidazol-4-yl)pyrrolidine-3-carboxamide], < 1000 nM. With `N#CN1CC[C@H](C(=O)Nc2cn(Cc3ccncc3)cn2)C1` [Example 170, (S)-1-cyano-N-(1-(pyridin-4-ylmethyl)-1H-imidazol-4-yl)pyrrolidine-3-carboxamide], the IC50 was < 1000 nM.

For the compound `Cc1noc(C)c1Cn1cnc(NC(=O)[C@H]2CCN(C#N)C2)c1` [Example 171, (S)-1-cyano-N-(1-((3,5-dimethylisoxazol-4-yl)methyl)-1H-imidazol-4-yl)pyrrolidine-3-carboxamide], the IC50 lay within 1000 to 10000 nM. `C[C@H]1[C@@H](C(=O)Nc2cn([C@@H](C)c3ccccc3)cn2)CCN1C#N` [Example 172, (2S,3S)-1-cyano-2-methyl-N-(1-((S)-1-phenylethyl)-1H-imidazol-4-yl)pyrrolidine-3-carboxamide]: the IC50 was 1000 to 10000 nM.

On to `C[C@@H]1CN(C#N)C[C@H]1C(=O)Nc1cn([C@@H](C)c2ccccc2)cn1` [Example 173, (3S,4S)-1-cyano-4-methyl-N-(1-((S)-1-phenylethyl)-1H-imidazol-4-yl)pyrrolidine-3-carboxamide], for which the IC50 is < 1000 nM.

As for `Cc1ccnc(-n2cnc(NC(=O)[C@H]3CCN(C#N)C3)c2)c1` [Example 174, (S)-1-cyano-N-(1-(4-methylpyridin-2-yl)-1H-imidazol-4-yl)pyrrolidine-3-carboxamide], the IC50 is < 1000 nM. Under `Cc1cccc(-n2cnc(NC(=O)[C@H]3CCN(C#N)C3)c2)n1` [Example 175, (S)-1-cyano-N-(1-(6-methylpyridin-2-yl)-1H-imidazol-4-yl)pyrrolidine-3-carboxamide] stands 1000 to 10000 nM. The same measure for `Cc1nccc(-n2cnc(NC(=O)[C@H]3CCN(C#N)C3)c2)n1` [Example 176, (S)-1-cyano-N-(1-(2-methylpyrimidin-4-yl)-1H-imidazol-4-yl)pyrrolidine-3-carboxamide]: 1000 to 10000 nM; for `N#Cc1ccc(-n2cnc(NC(=O)[C@H]3CCN(C#N)C3)c2)cc1` [Example 177, (S)-1-cyano-N-(1-(4-cyanophenyl)-1H-imidazol-4-yl)pyrrolidine-3-carboxamide]: < 1000 nM; for `Cc1nc(NC(=O)[C@H]2CCN(C#N)C2)cn1Cc1ccccc1` [Example 178, (S)—N-(1-benzyl-2-methyl-1H-imidazol-4-yl)-1-cyanopyrrolidine-3-carboxamide]: < 1000 nM. As for `Cc1noc(C)c1CCn1cnc(NC(=O)[C@H]2CCN(C#N)C2)c1` [Example 179, (S)-1-cyano-N-(1-(2-(3,5-dimethylisoxazol-4-yl)ethyl)-1H-imidazol-4-yl)pyrrolidine-3-carboxamide], the IC50 was < 1000 nM. The same measure for `N#Cc1cccc(-n2cnc(NC(=O)[C@H]3CCN(C#N)C3)c2)c1` [Example 180, (S)-1-cyano-N-(1-(3-cyanophenyl)-1H-imidazol-4-yl)pyrrolidine-3-carboxamide]: < 1000 nM. Take `N#CN1CC[C@H](C(=O)Nc2cn(-c3cccnc3)cn2)C1` [Example 181, (S)-1-cyano-N-(1-(pyridin-3-yl)-1H-imidazol-4-yl)pyrrolidine-3-carboxamide]: the IC50 is < 1000 nM. Under `N#CN1CC[C@H](C(=O)Nc2cn(-c3ccncc3)cn2)C1` [Example 182, (S)-1-cyano-N-(1-(pyridin-4-yl)-1H-imidazol-4-yl)pyrrolidine-3-carboxamide] stands < 1000 nM; under `COc1cccc(-n2cnc(NC(=O)[C@H]3CCN(C#N)C3)c2)c1` [Example 183, (S)-1-cyano-N-(1-(3-methoxyphenyl)-1H-imidazol-4-yl)pyrrolidine-3-carboxamide], < 1000 nM; under `N#CN1CC[C@H](C(=O)Nc2cn(C3CCCN(C(=O)c4ccccc4)C3)cn2)C1` (stereo partly drawn) [Example 184, (3S)—N-(1-(1-benzoylpiperidin-3-yl)-1H-imidazol-4-yl)-1-cyanopyrrolidine-3-carboxamide], < 1000 nM. For the compound `N#CN1CC[C@H](C(=O)Nc2cn(C3CCN(C(=O)c4ccccc4)C3)cn2)C1` (stereo partly drawn) [Example 185, (3S)—N-(1-(1-benzoylpyrrolidin-3-yl)-1H-imidazol-4-yl)-1-cyanopyrrolidine-3-carboxamide], the IC50 is < 1000 nM. Under `N#CN1CC[C@H](C(=O)Nc2cn(C3CCCN(Cc4ccccc4)C3)cn2)C1` (stereo partly drawn) [Example 186, (3S)—N-(1-(1-benzylpiperidin-3-yl)-1H-imidazol-4-yl)-1-cyanopyrrolidine-3-carboxamide] stands < 1000 nM. Under `CN1CCCC(n2cnc(NC(=O)[C@H]3CCN(C#N)C3)c2)C1` (stereo partly drawn) [Example 187, (3S)-1-cyano-N-(1-(1-methylpiperidin-3-yl)-1H-imidazol-4-yl)pyrrolidine-3-carboxamide] stands < 1000 nM; under `CN1CCC(n2cnc(NC(=O)[C@H]3CCN(C#N)C3)c2)C1` (stereo partly drawn) [Example 188, (3S)-1-cyano-N-(1-(1-methylpyrrolidin-3-yl)-1H-imidazol-4-yl)pyrrolidine-3-carboxamide], 1000 to 10000 nM.

On to `CC(=O)N1CCc2nc(NC(=O)[C@H]3CCN(C#N)C3)sc2C1` [Example 189, (S)—N-(5-acetyl-4,5,6,7-tetrahydrothiazolo[5,4-c]pyridin-2-yl)-1-cyanopyrrolidine-3-carboxamide], for which the IC50 was < 1000 nM. Under `CC(C)C(=O)N1CCc2nc(NC(=O)[C@H]3CCN(C#N)C3)sc2C1` [Example 190, (S)-1-cyano-N-(5-isobutyryl-4,5,6,7-tetrahydrothiazolo[5,4-c]pyridin-2-yl)pyrrolidine-3-carboxamide] stands < 1000 nM; under `N#CN1CC[C@H](C(=O)Nc2nc3c(s2)CN(C(=O)c2ccccc2)CC3)C1` [Example 191, (S)—N-(5-benzoyl-4,5,6,7-tetrahydrothiazolo[5,4-c]pyridin-2-yl)-1-cyanopyrrolidine-3-carboxamide], < 1000 nM.

As for `COc1ccccc1C(=O)N1CCc2nc(NC(=O)[C@H]3CCN(C#N)C3)sc2C1` [Example 192, (S)-1-cyano-N-(5-(2-methoxybenzoyl)-4,5,6,7-tetrahydrothiazolo[5,4-c]pyridin-2-yl)pyrrolidine-3-carboxamide], the IC50 is < 1000 nM.

As to `N#CN1CC[C@H](C(=O)Nc2nc3c(s2)CN(C(=O)c2ccccn2)CC3)C1` [Example 193, (S)-1-cyano-N-(5-picolinoyl-4,5,6,7-tetrahydrothiazolo[5,4-c]pyridin-2-yl)pyrrolidine-3-carboxamide], the IC50 is < 1000 nM.

Regarding `Cn1ccc(C(=O)N2CCc3nc(NC(=O)[C@H]4CCN(C#N)C4)sc3C2)n1` [Example 194, (S)-1-cyano-N-(5-(1-methyl-1H-pyrazole-3-carbonyl)-4,5,6,7-tetrahydrothiazolo[5,4-c]pyridin-2-yl)pyrrolidine-3-carboxamide], the IC50 was < 1000 nM. Turning to `Cn1cccc(C(=O)N2CCc3nc(NC(=O)[C@H]4CCN(C#N)C4)sc3C2)c1=O` [Example 195, (S)-1-cyano-N-(5-(1-methyl-2-oxo-1,2-dihydropyridine-3-carbonyl)-4,5,6,7-tetrahydrothiazolo[5,4-c]pyridin-2-yl)pyrrolidine-3-carboxamide], the IC50 is < 1000 nM. The same measure for `N#CN1CC[C@H](C(=O)Nc2nc3c(s2)CN(C(=O)c2cccnc2)CC3)C1` [Example 196, (S)-1-cyano-N-(5-nicotinoyl-4,5,6,7-tetrahydrothiazolo[5,4-c]pyridin-2-yl)pyrrolidine-3-carboxamide]: < 1000 nM.
